Laboratory results as given in ChEMBL document CHEMBL1126328, “The rotenoid core structure: Modifications to define the requirements of the toxophore” (Bioorg Med Chem Lett, 1992).

Tests used:
[1] = Inhibition of NADH dehydrogenase in blowfly flight-muscle submitochondrial preparation experiment I; type: tissue-based, Phormia regina, Muscle tissue
[2] = Inhibition of NADH dehydrogenase in blowfly flight-muscle submitochondrial preparation experiment II; design: species or system Phormia regina, Muscle tissue
Phormia regina = test: Relative activity against blowfly flight muscle submitochondrial NADH dehydrogenase compared to rotenone; details: Muscle tissue
[3] = Inhibition of NADH dehydrogenase in blowfly flight-muscle submitochondrial preparation; type: tissue-based, Muscle tissue

| Structure (SMILES) | IC50 [1] [nM] | IC50 [2] [nM] | Relative activity (Phormia regina) [%] | IC50 [3] [nM] |
| --- | --- | --- | --- | --- |
| C=C(C)[C@H]1CC2=C(Cc3ccc4c(c3C2)O[C@@H]2COc3cc(OC)c(OC)cc3[C@@H]2C4=O)O1 | 0.25 | 1.5 | 100 | – |
| COc1cc2c(cc1OC)[C@@H]1[C@H](O)c3ccc4c(c3O[C@@H]1CO2)Cc1cc(C(C)C)oc1C4 | – | – | 1 | 25 |
| O=C1c2ccccc2O[C@@H]2COc3ccccc3[C@H]12 | – | – | 0.005 | 5000 |
| COc1ccc2c(c1)O[C@@H]1COc3ccccc3[C@@H]1C2=O | – | – | 0.0031 | 8000 |
| COc1cc2c(cc1OC)[C@H]1[C@H](O)c3ccc4c(c3O[C@@H]1CO2)Cc1cc(C(C)C)oc1C4 | – | – | 0.063 | 400 |
| COc1cc2c(cc1OC)[C@@H]1C(=O)c3ccccc3O[C@@H]1CO2 | – | – | 0.125 | 200 |
| COc1cc2c(cc1OC)[C@H]1C(=O)c3ccc4c(c3O[C@@H]1CO2)Cc1cc(C(C)C)oc1C4 | – | – | 30 | 5 |
| COc1ccc2c(c1)O[C@@H]1COc3cc(OC)c(OC)cc3[C@@H]1C2=O [MUNDOSERONE] | – | – | 1.67 | 15 |
| O=C1c2ccccc2O[C@@H]2CSc3ccccc3[C@H]12 | – | – | 0.0025 | 10000 |
| C=C(C)[C@H]1CC2=C(Cc3ccc4c(c3C2)O[C@@H]2COc3cc(OC)c(OC)cc3[C@H]2C4=O)O1 | – | – | 50 | 0.5 |
| COc1cc2c(cc1OC)[C@@H]1C(=O)c3ccc4c(c3O[C@@H]1CO2)Cc1cc(C(C)C)oc1C4 | – | – | 75 | 2 |
| COc1cc2c(cc1OC)[C@@H]1C(=O)c3ccccc3O[C@@H]1CS2 | – | – | 0.083 | 300 |
